Data published in PMC6150365, “Simultaneous Determination of Seven Components in Rat Plasma by the UPLC-MS/MS Method and Application of Pharmacokinetic Studies to SimiaoYong’an Decoction” (Molecules : A Journal of Synthetic Chemistry and Natural …, 2017).

Test: Pharmacokinetic study in rats after oral administration of SYD extract and its single and combined TCM extracts (UPLC-MS/MS of plasma)
Conditions: male, Sprague-Dawley, rat, plasma, po, n = 6; for AUC(0-inf) / Cmax / MRT last / MRT inf / Tmax / AUC(0-t): rat plasma; for MRT last: MRT(0–t); for MRT inf: MRT(0–∞); for half-life: t1/2, rat plasma
[1] = 2.14 g·kg^−1 (extract), oral LJ + GU extract
[2] = 2.15 g/kg, oral LJ extract 2.15 g/kg
[3] = 3.29 g·kg^−1 (extract), oral LJ + AS extract
[4] = 3.29 g·kg^−1 extract, oral LJ + AS extract
[5] = 4.01 g·kg^−1 (extract), oral LJ + AS + GU extract
[6] = 4.5 g·kg^−1 (extract), oral LJ + SN extract
[7] = 4.5 g·kg^−1 extract, oral LJ + SN extract
[8] = 4.73 g/kg, oral LJ + SN + GU extract 4.73 g/kg
[9] = 5.43 g/kg, oral LJ + SN + AS extract 5.43 g/kg
[10] = 8.25 g/kg, oral SYD extract 8.25 g/kg

Description: Pieces of LJ, SN, AS and GU were weighed according to the proportion of 3:3:2:1 with appropriate amounts. The mixed pieces were crushed and decocted two times (60 min each time) with water (1:10 w/v) after being soaked for 60 min. The decoctions were then combined and condensed to the concentration of 0.5 g/mL, after which 95% ethanol was slowly added to the concentrate until a final ethanol concentration of 70% was reached. The SYD solution was set at room temperature overnight and then was filtered. The solvent was recovered, and the residue was dried under reduced pressure. A certain amount of the water extract of SYD was weighed and then dissolved with purified water for intragastric (oral) administration solution. The single herbs and different combination groups such as LJ, SN, AS, GU, LJ + SN, LJ + AS, LJ + GU, SN + AS, SN + GU, AS + GU, LJ + SN + AS, LJ + SN + GU, LJ + AS + GU and SN + AS + GU were prepared according to the procedure of SYD.
Male Sprague-Dawley (SD) rats (body weight 250 ± 10 g) were supplied by the SPF (Beijing) Biotechnology Co., Ltd. (Certificate No.: SCXK 2016-0002, Beijing, China). The animals were maintained in controlled conditions (temperature 20–25 °C, relative humidity 55–60% and 12-h light/12-h dark cycle) with free access to standard laboratory food and water for seven days of acclimation and then fasted for 12 h before each experiment but allowed to drink freely during this time.
Ninety male SD rats were randomly separated into 15 groups and administered a dosage of extract via gastric gavage once per day; detailed information about the oral daily dose of SYD extract and the corresponding single and combined TCMs (LJ, SN, AS, GU, LJ + SN, LJ + AS, LJ + GU, SN + AS, SN + GU, AS + GU, LJ + SN + AS, LJ + SN + GU, LJ + AS + GU, SN + AS + GU and SYD) is listed in Table 4.
Each plasma sample (200 μL) with 50 μL IS solution added was spiked into 100 μL 1% formic acid distilled water solution and then vortexed for 1 min. Protein was precipitated by adding 600 μL of methanol to the mixture. After being vortexed and sonicated, the samples were centrifuged at 25,000 r/min, 4 °C for 10 min. The supernatant of each sample was transferred to a new 2-mL centrifuge tube and evaporated to dryness by N2 at 40 °C. Finally, the residue was dissolved in 100 μL methanol–water (1:1, v/v), followed by centrifugation at 30,000 r/min, 4 °C for 10 min, and 10-μL supernatant aliquots were injected into the UPLC-MS/MS system for analysis.
The SYD was decomposed into 15 groups of compatibility combinations (LJ, SN, AS, GU, LJ + SN, LJ + AS, LJ + GU, SN + AS, SN + GU, AS + GU, LJ + SN + AS, LJ + SN + GU, LJ + AS + GU, SN + AS + GU and SYD). The 15 combinations were weighed according to the proportion of 3:3:2:1 with appropriate amounts and prepared by the method described in “Section 3.2”. Six male SD rats (body weight 250 ± 10 g) of each compatibility group were used in the pharmacokinetic study. After 12-h fast, rats of the different groups were orally administered the respective extract dissolved in saline (Table 4). Venous blood (0.45 mL) was obtained from the orbit vein and collected in heparin-pretreated polypropylene centrifuge tubes at 0.083 h, 0.17 h, 0.25 h, 0.50 h, 0.75 h, 1.0 h, 1.5 h, 2.0 h, 3.0 h, 4.0 h, 6.0 h, 8.0, 12 h and 24 h post-dose. The plasma was separated by centrifugation at 8000 r/min for 10 min and then stored at −20 °C until analysis. The amount of each analyte in the plasma was estimated by UPLC-MS/MS analysis as described in Section 3.5.
Non-compartmental methods using Phoenix WinNonlin 7.0 software provided by the Beijing University of Chinese Medicine were used to analyze plasma concentration versus time profiles and to estimate the following pharmacokinetic parameters: terminal elimination half-lives (t1/2), area under the plasma concentration versus time curve from zero to last sampling time (AUC), and the mean residence time (MRT).

AUC(0-inf) [1]: 5510 ± 2000 ng·h/mL | Cmax [1]: 690 ± 440 ng/mL | MRT last [1]: 8.17 ± 0.62 h | MRT inf [1]: 88.5 ± 42.1 h | Tmax [1]: 1.25 ± 0.59 h | half-life [1]: 8.07 ± 3.65 h | AUC(0-t) (2.14 g·kg^−1 extract, oral LJ + GU extract): 1600 ± 70 ng·h/mL | AUC(0-t) [2]: 1520 ± 110 ng·h/mL | AUC(0-inf) [2]: 1670 ± 340 ng·h/mL | Cmax [2]: 1140 ± 520 ng/mL | MRT last [2]: 3.65 ± 1.03 h | MRT inf [2]: 6.74 ± 6 h | Tmax [2]: 1.25 ± 0.59 h | half-life [2]: 6.71 ± 4.19 h | Cmax [3]: 660 ± 350 ng/mL | MRT last [3]: 7.93 ± 1.33 h | MRT inf [3]: 80.9 ± 41.5 h | Tmax [3]: 1.33 ± 0.52 h | half-life [3]: 7.89 ± 2.42 h | AUC(0-t) [4]: 1720 ± 310 ng·h/mL | AUC(0-inf) [4]: 5400 ± 1940 ng·h/mL | AUC(0-t) [5]: 1660 ± 120 ng·h/mL | AUC(0-inf) [5]: 5350 ± 1940 ng·h/mL | Cmax [5]: 540 ± 170 ng/mL | MRT last [5]: 8.06 ± 0.78 h | MRT inf [5]: 81.9 ± 41.3 h | Tmax [5]: 1.5 ± 0.45 h | half-life [5]: 7.91 ± 2.17 h | MRT last [6]: 7.79 ± 1.38 h | MRT inf [6]: 80 ± 40.2 h | Tmax [6]: 1.54 ± 0.56 h | half-life [6]: 9.39 ± 2.6 h | AUC(0-t) [7]: 1790 ± 440 ng·h/mL | AUC(0-inf) [7]: 5470 ± 2060 ng·h/mL | Cmax [7]: 680 ± 100 ng/mL | AUC(0-t) [8]: 1840 ± 450 ng·h/mL | AUC(0-inf) [8]: 5510 ± 2020 ng·h/mL | Cmax [8]: 720 ± 450 ng/mL | MRT last [8]: 7.72 ± 1.48 h | MRT inf [8]: 79.3 ± 40.8 h | Tmax [8]: 1.5 ± 0.45 h | half-life [8]: 6.83 ± 2.11 h | AUC(0-t) [9]: 1160 ± 780 ng·h/mL | AUC(0-inf) [9]: 1180 ± 770 ng·h/mL | Cmax [9]: 660 ± 483 ng/mL | MRT last [9]: 2.5 ± 0.7 h | MRT inf [9]: 4.07 ± 3.93 h | Tmax [9]: 1.5 ± 0.45 h | half-life [9]: 6.25 ± 4.29 h | AUC(0-t) [10]: 1980 ± 1380 ng·h/mL | AUC(0-inf) [10]: 2170 ± 1400 ng·h/mL | Cmax [10]: 770 ± 460 ng/mL | MRT last [10]: 4.71 ± 1.34 h | MRT inf [10]: 8.87 ± 8.1 h | half-life [10]: 7.45 ± 3.39 h
SMILES: COC(=O)C1=CO[C@@H](O[C@@H]2O[C@H](CO)[C@@H](O)[C@H](O)[C@H]2O)[C@@H]2[C@@H](C)[C@@H](O)C[C@H]12 [Loganin, loganin]
